What was measured:
Plasma kallikrein = Plasma kallikrein (Homo sapiens, UniProt P03952); experiment: Inhibition of plasma kallikrein
Kallikrein-1 = Kallikrein-1 (Homo sapiens, UniProt P06870); experiment: Inhibition of human kallikrein 1
[1] = target: T1, Prostate-specific antigen (Homo sapiens, UniProt P07288); experiment: Inhibition of human kallikrein 3
T1 sequence (P07288 whole entry): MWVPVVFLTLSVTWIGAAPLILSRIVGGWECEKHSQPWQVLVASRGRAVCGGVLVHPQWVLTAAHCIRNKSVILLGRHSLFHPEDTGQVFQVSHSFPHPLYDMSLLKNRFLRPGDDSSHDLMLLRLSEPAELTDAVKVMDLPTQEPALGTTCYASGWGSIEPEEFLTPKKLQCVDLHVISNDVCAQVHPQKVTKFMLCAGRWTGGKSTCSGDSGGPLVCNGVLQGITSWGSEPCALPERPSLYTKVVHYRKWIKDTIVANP

Kallikrein-1, sequence (P06870 whole entry): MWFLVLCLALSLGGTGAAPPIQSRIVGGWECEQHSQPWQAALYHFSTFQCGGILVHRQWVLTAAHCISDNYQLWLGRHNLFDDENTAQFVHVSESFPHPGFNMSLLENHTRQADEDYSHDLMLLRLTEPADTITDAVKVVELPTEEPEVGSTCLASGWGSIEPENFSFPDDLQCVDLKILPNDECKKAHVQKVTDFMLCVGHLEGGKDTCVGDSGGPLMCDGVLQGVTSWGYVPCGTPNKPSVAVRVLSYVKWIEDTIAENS
Plasma kallikrein, sequence (P03952 20-390 limits assumed): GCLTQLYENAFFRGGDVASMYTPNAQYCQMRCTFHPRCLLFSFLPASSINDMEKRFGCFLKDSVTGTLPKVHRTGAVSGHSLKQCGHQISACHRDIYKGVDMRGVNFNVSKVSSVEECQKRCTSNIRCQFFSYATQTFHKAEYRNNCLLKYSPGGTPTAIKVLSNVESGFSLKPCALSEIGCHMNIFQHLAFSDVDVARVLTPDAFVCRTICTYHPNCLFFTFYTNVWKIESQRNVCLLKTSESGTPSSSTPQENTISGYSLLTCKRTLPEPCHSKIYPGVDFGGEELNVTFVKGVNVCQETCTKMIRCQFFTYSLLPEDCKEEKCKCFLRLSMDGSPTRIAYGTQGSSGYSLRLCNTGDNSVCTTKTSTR
Plasma kallikrein, sequence (P03952 391-638 limits assumed): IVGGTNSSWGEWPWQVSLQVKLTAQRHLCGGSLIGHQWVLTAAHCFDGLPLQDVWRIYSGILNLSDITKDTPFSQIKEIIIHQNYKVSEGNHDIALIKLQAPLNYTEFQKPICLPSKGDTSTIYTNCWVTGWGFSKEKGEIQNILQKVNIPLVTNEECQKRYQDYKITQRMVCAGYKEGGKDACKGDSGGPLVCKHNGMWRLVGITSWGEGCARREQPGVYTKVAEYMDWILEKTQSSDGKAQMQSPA

| Ki (Kallikrein-1) [nM] | SMILES | further results |
| --- | --- | --- |
| – | NC[C@H]1CC[C@H](C(=O)NC(Cc2ccc(Oc3ncccn3)cc2)C(=O)Nc2cccc(C(=O)O)c2)CC1 (some centres undefined) | IC50 (Plasma kallikrein): 710 nM |
| 810 | N=C(N)c1cc(Br)c(OCCCCCOc2c(Br)cc(C(=N)N)cc2Br)c(Br)c1 | – |
| 31 | N=C(N)c1ccc(OCc2ccc(COc3ccc(C(=N)N)cc3I)cc2)c(I)c1 | – |
| – | O=C(OCc1ccccc1)c1cccc(OC(=O)N2C(=O)[C@@H](Cc3ccc(O)cc3)[C@H]2C(=O)OCc2ccccc2)c1 | IC50 [1]: 226 nM |

From ChEMBL document CHEMBL2010718, “Human kallikrein 6 inhibitors with a para-amidobenzylanmine P1 group identified through virtual screening” (Bioorg Med Chem Lett, 2012)
